Test results published in patent US7902226B2, “Dehalogeno-compounds” (Daiichi Pharmaceutical Co., Ltd., priority 2000, dated 2011).
Where two headings read alike, the source gives them in different places.

Assay: Blood concentration and organ concentration after oral administration (absorption test groups)
Assay type: in vivo
Conditions: fasting rats, 20 mg/kg; for Kp / Cmax / AUC(0-t) / half-life: male, Crj: CD IGS, rat; for Cmax / AUC(0-t) / half-life: serum; for AUC(0-t): read-out: Serum AUC0-4h; for half-life: read-out: Serum t1/2 (converted)
Experimental: For the compound of this invention described as Example 1, the blood concentration and organ concentration after oral administration were determined by the following methods. Measurements were also made by the same methods for Reference drug 1.
An administration solution was prepared by dissolving a tested compound to a concentration of 2 mg/ml (as free compound) in distilled water, and using a 2.5 ml disposable syringe or a metal oral probe, the solution was orally administered at a dose of 20 mg/kg to fasting rats (Crj: CD IGS; male; 7-week-old; Charles River Japan, Inc.).
The absorption test groups (4 rats per group; total of 6 groups) were killed by exsanguination while under ether anesthetization 0.25, 0.5, 1, 2, 4, or 6 hours after drug administration, and the blood, liver, kidneys, and lungs were sampled. With the blood, serum was sampled by centrifugation (3000 rpm×15 minutes, 4° C.) after coagulation. Tissues were homogenized after adding 3 to 5 ml of 0.1M phosphate buffer solution (pH 7.0) and the centrifugation supernatants (3000 rmpm×15 minutes, 4° C.) were collected.
Determination of drug concentrations in liquid samples were quantified by an agar well method bioassay using the B. subtilis ATCC6051 strain as the test organism. A test medium was prepared by inoculating a suspension containing 5×10^7 CFU/ml of spores of the test bacteria at a proportion of 1% into an nutrient agar (Eiken Kagaku) that was sterilized at 121° C. for 15 minutes and then cooled to approximately 50° C. After placing 10 ml each of this medium in a sterilized Petri dish and solidifying horizontally, four holes of 8 mm diameter were made to prepare a test plate medium. The Bioassay System TDA-1 (Dainippon Seiki) was used for preparation of the test plate media. For the measurements, the test samples (diluted with serum or phosphate buffer solution as necessary), serial dilutions of the drug solutions for calibration (two-fold serial dilutions prepared so that the inhibition ring diameter will be approximately 10 to 30 mm), and a reference drug solution (a drug solution of given concentration for correction of the error among plates; normally, a concentration of forming an inhibition ring of approximately […] is used) were prepared, and 50 μL of the test sample (or the drug solution for calibration) were placed in each of two of the four holes of each plate and 50 μL of the reference solution was placed in each of the other two holes. After addition of the sample, the plate medium was set still for 1 hour at 4° C. to perform preliminary dispersion and then culturing at 37° C. was performed for approximately 18 hours, and the inhibition ring diameters were measured using CA-400 (Dainippon Seiki). The concentrations of the test samples were measured using a calibration curve determined by second-order regression from the logarithmic values of the drug concentration of the calibration curve serial dilutions and the inhibition ring diameters.
For the tissue concentration (μg/ml), the concentration (μg/ml) in the homogenate supernatant was determined from the tissue weight (g) and the added phosphate buffer amount (ml) and using the following equation: [Tissue concentration]=[Homogenate concentration]×([Tissue weight]+[Buffer solution amount])/[Tissue weight]
For each drug, the pharmacokinetic parameters in rats were calculated based on mean concentration, by non-compartmental analysis, and using the pharmacodynamics analysis software, PSAG-CP (Asmedica).

[1] = kidney/serum, kidney, read-out: AUC0-4h tissue/serum ratio Kidney
[2] = liver/serum, liver, read-out: AUC0-4h tissue/serum ratio Liver
[3] = lung/serum, lung, read-out: AUC0-4h tissue/serum ratio Lung

SMILES	Tissue AUC0-4h Kidney (kidney)	Tissue Cmax Kidney (kidney) [µg/g]	Tissue AUC0-4h Liver (liver)	Tissue Cmax Liver (liver) [µg/g]	Tissue AUC0-4h Lung (lung)	Tissue Cmax Lung (lung) [µg/g]	Kp [1]	Kp [2]	Kp [3]	Cmax [ng/mL]	AUC(0-t) [ng·h/mL]	half-life [h]
Cc1c(N2CC[C@@H](C3(N)CC3)C2)ccc2c(=O)c(C(=O)O)cn([C@@H]3C[C@@H]3F)c12 [Example 1, 7-[3-(R)-(1-aminocyclopropyl)pyrrolidin-1-yl]-1-[2-(S)-fluoro-1-(R)-cyclopropyl]-1,4-dihydro-8-methyl-4-oxoquinoline-3-carboxylic acid]	29.0	14.2	34.5	27.4	10.0	3.8	29	34.5	10	1700	3100	1.2
Cc1c(N2CC[C@@H](C3(N)CC3)C2)c(F)cc2c(=O)c(C(=O)O)cn([C@@H]3C[C@@H]3F)c12 [Reference drug 1, 7-[3-(R)-(1-aminocyclopropyl)pyrrolidin-1-yl]-6-fluoro-1-[2-(S)-fluoro-1-(R)-cyclopropyl]-8-methyl-1,4-dihydro-4-oxoquinoline-3-carboxylic acid, reference compound]	7.1	5.0	10.4	11.6	5.3	3.0	7.1	10.4	5.3	1600	2300	1
